Results published in patent US6136798A, “Compounds inhibiting the association of the PDGF receptor and phosphatidylinositol 3-kinase and their use” (Warner-Lambert Company, priority 1999, dated 2000).

How the values were obtained:
[1] = biological target: T1, PDGF-β receptor tyrosine kinase intracellular domain / p85 SH2 fusion protein (PDGF Receptor/PI3-Kinase Association) (Homo sapiens, UniProt P27986); test: p85 SH2--PDGF-β Receptor Binding Assay; details: [35S]p85 C-terminal SH2 fusion protein binding to phosphorylated PDGF-β receptor; 25° C., 20 minutes
T1 construct: The pGEX plasmid expressing the carboxy-terminal SH2 of the p85 subunit of PI3-kinase; made in house; host or cells: p85 SH2-GST: E. coli; PDGF-β receptor intracellular domain: SF9 insect cells, obtained from L. T. Williams (UCSF)
T1 sequence (P27986 624-718 limits assumed): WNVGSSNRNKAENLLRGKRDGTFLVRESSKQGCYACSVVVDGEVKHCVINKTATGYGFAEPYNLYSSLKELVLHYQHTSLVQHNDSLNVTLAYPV
Experimental: The pGEX plasmid expressing the carboxy-terminal SH2 of the p85 subunit of PI3-kinase in a glutathione-s-transferase (GST) fusion protein was used in these studies. Expression and purification of the fusion protein was performed as previously described by Zhu, et al., J. Biol. Chem., 1993;268:1175. To prepare [^35 S]p85 fusion proteins, a 125 mL overnight culture of E. coli expressing the p85-GST fusion protein was added to 1000 mL of LB broth containing 100 μg/mL ampicillin. The cultures were incubated at 37° C. until reaching a density of A600 =1.0. 1 mM of isopropyl-β-D-thiogalactoside was added and 15 minutes later, 10 mCi of trans ^35 S-label was added and cultures incubated for an additional 3 hours at 37° C. The cells were then lysed by sonication and fusion proteins purified over glutathione-agarose beads.
Lysates from SF9 insect cells expressing the PDGF-β receptor tyrosine kinase intracellular domain, obtained from L. T. Williams at the University of California at San Francisco, were incubated with M2 affinity beads and the complexes were washed several times with Tris buffer containing protease inhibitors and sodium orthovanadate. Complexes were centrifuged and resuspended in N-[2-hydroxyethyl]piperazine-N'-[2-ethane sulfonic acid] (HEPES) buffer containing 1 mM adenosine triphosphate (ATP), 10 mM MnCl2, and 5 mM MgCl2 to stimulate phosphorylation of the PDGF receptor.
Binding of [^35 S]p85 SH2 fusion proteins to the phosphorylated PDGF-β receptor tyrosine kinase intracellular domain was assayed in Hepes buffer containing ethylene diamine tetraacetic acid (EDTA), NP-40 and […] of each of the protease inhibitors, PMSF, pepstatin, leupeptin, and aprotinin. Binding assays were performed in 96-well millipore filter plates in a final volume of […] of HEPES buffer containing 135 μL phosphorylated PDGF receptor-beads complex (1 μg receptor/well), 10 μL [^35 S]p85 SH2 fusion protein (30,000 cpm/well), and 5 μL of peptide inhibitor as indicated. Samples were incubated at 25° C. for 20 minutes with continuous rocking. Binding was terminated by filtration through the filter plates using a millipore multiscreen filtration manifold Millipore, Bedford, Mass.). Filter plates were washed four times with 0.15 mL Hepes buffer followed by the addition of 40 μL hi-load scintillant and radioactivity retained on the filters was counted in a Wallac 1450 Microbeta counter (Wallac Inc, Gaithersburg, Md.). Total binding was defined as [^35 S]p85 fusion protein bound to the PDGF-β receptor-bead complex retained on the filter plate after washing. Nonspecific binding was defined as radioactivity retained on the filter plates in the presence of excess unlabeled p85 fusion protein. Specific binding was defined as total binding minus nonspecific binding. IC50 values were calculated by weighted nonlinear regression curve fitting.

[2] = biological target: T2, PDGF Receptor/PI 3-Kinase association in rat aortic smooth muscle cells (Rattus norvegicus, UniProt Q63787); test: PDGF Receptor/PI 3-Kinase Cell Association Assay; type: cell-based; details: RASMC, PDGF-BB 30 ng/mL 5 minutes; for inhibition at 25 µM: printed in the Cellular IC50 column, read-out: Inhibition of PDGF Receptor/PI3-Kinase Association (Cellular)
T2 construct: endogenous in cells; host or cells: rat aortic smooth muscle cells (RASMC), primary, passages 5 to 20
T2 sequence (Q63787 whole entry): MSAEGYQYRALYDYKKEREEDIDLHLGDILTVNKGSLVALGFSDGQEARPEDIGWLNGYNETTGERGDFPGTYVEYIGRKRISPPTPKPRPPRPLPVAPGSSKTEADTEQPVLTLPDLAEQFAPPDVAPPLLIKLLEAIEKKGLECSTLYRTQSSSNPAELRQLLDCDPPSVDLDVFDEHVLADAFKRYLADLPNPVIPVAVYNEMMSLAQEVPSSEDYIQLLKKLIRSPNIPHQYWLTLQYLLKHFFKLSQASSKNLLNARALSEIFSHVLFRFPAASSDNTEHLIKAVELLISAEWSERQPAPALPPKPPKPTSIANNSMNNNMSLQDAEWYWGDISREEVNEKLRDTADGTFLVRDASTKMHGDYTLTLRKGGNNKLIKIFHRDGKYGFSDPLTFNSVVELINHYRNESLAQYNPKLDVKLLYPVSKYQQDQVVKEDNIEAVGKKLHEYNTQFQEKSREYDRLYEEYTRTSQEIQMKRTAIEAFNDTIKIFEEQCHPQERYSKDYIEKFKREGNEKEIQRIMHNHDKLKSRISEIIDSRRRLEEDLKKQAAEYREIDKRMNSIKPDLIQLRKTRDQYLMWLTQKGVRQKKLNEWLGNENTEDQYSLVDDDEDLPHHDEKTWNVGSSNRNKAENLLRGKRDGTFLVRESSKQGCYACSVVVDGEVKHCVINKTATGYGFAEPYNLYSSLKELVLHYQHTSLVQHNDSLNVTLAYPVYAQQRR
Experimental: Smooth muscle cells were isolated from the thoracic aorta of rats (RASMC) and explanted according to the method of Ross, J. Biol. Chem., 1971;30:172-86. Cells were grown in Dulbecco's modified Eagle's medium (DMEM, Gibco) containing 10% fetal calf serum (FBS, Hyclone, Logan, Utah), 1% glutamine (Gibco) and 1% penicillin/streptomycin (Gibco). Cells were identified as smooth muscle cells by their "hill and valley" growth pattern and by fluorescent staining with a monoclonal antibody specific for SMC […] (Sigma). RASMC were used between passages 5 and 20 for all experiments. Test compounds were prepared in dimethylsulfoxide (DMSO) in order to achieve consistency in the vehicle and to ensure compound solubility. Appropriate DMSO controls were simultaneously evaluated with the test compounds.
Rat aortic smooth muscle cells were grown to confluency in 100 mm dishes. Growth medium was removed and replaced with serum-free medium and cells were incubated at 37° C. for an additional 24 hours. Test compounds were then added directly to the medium and cells incubated for an additional 24 hours. After 24 hours PDGF-BB was added at a final concentration of 30 ng/mL for 5 minutes at 37° C. to stimulated autophosphorylation of the PDGF receptor and association of PI 3-kinase to the phosphorylated receptors. […] Following incubation with ^125 I-protein-A, p85 protein levels were detected by phosphorimage analysis and protein bands quantitated via densitometry. […]

| SMILES | IC50 [1] | IC50 ([2]; 24 h compound, p85 immunoblot, read-out: Cellular IC50) | inhibition at 25 µM [2] |
| --- | --- | --- | --- |
| CCCCCCCCN(CCCCCCCC)C(=O)[C@H](C)NC(=O)[C@@H](NC(=O)[C@H](Cc1ccc(OP(=O)(O)O)cc1)NC(C)=O)C(C)C [Example 10, [1S-[1R*[R*(R*)]]]-Phosphoric acid mono-(4-{2-acetylamino-2-[1-(1-dioctylcarbamoyl-ethyl-carbamoyl)-2-methyl-propylcarbamoyl]-ethyl}-phenyl) ester] | 3.5 ± 0.5 µM |  |  |
| CCCCN(CCCC)C(=O)[C@H](C)NC(=O)[C@@H](NC(=O)[C@H](Cc1ccc(OP(=O)(O)O)cc1)NC(C)=O)C(C)C [Example 6, [1S-[1R*[R*(R*)]]]-Phosphoric acid mono-(4-{2-acetylamino-2-[1-(1-dibutylcarbamoyl-ethyl-carbamoyl)-2-methyl-propylcarbamoyl]-ethyl}-phenyl) ester] | 1.6 ± 0.32 µM | 37.5 µM |  |
| CCCCCN(CCCCC)C(=O)[C@H](C)NC(=O)[C@@H](NC(=O)[C@H](Cc1ccc(C(F)(F)P(=O)(O)O)cc1)NC(C)=O)C(C)C [Example 2, [1S-[1R*[R*(R*)]]]-[(4-{2-Acetylamino-2-[1-(1-dipentylcarbamoyl-ethylcarbamoyl)-2-methyl-propylcarbamoyl]-ethyl}-phenyl)-difluoro-methyl]-phosphonic acid] | 0.29 ± 0.08 µM |  | 30% |
| CCCCCN(CCCCC)C(=O)[C@H](C)NC(=O)[C@@H](NC(=O)[C@H](Cc1ccc(OP(=O)(O)O)cc1)NC(C)=O)C(C)C [Example 8, [1S-[1R*[R*(R*)]]]-Phosphoric acid mono-(4-{2-acetylamino-2-[1-(1-dipentylcarbamoyl-ethyl-carbamoyl)-2-methyl-propylcarbamoyl]-ethyl}-phenyl) ester] | 0.22 µM |  |  |
| CCCCCCN(CCCCCC)C(=O)[C@H](C)NC(=O)[C@@H](NC(=O)[C@H](Cc1ccc(OP(=O)(O)O)cc1)NC(C)=O)C(C)C [Example 4, [1S-[1R*[R*(R*)]]]-Phosphoric acid mono-(4-{2-acetylamino-2-[1-(1-dihexylcarbamoyl-ethylcarbamoyl)-2-methyl-propylcarbamoyl]-ethyl}-phenyl) ester] | 0.08 ± 0.01 µM |  | 27% |
| CCCCCCCCN(CCCCCCCC)C(=O)[C@H](C)NC(=O)[C@@H](NC(=O)[C@H](Cc1ccc(C(F)(F)P(=O)(O)O)cc1)NC(C)=O)C(C)C [Example 3, [1S-[1R*[R*(R*)]]]-[(4-{2-Acetylamino-2-[1-(1-dioctylcarbamoyl-ethylcarbamoyl)-2-methyl-propylcarbamoyl]-ethyl}-phenyl)-difluoro-methyl]-phosphonic acid] | 12.2 ± 0.9 µM |  |  |
| CCCCCCN(CCCCCC)C(=O)[C@H](C)NC(=O)[C@@H](NC(=O)[C@H](Cc1ccc(C(F)(F)P(=O)(O)O)cc1)NC(C)=O)C(C)C [Example 1, [1S-[1R*[R*(R*)]]]-[(4-{2-Acetylamino-2-[1-(1-dihexylcarbamoyl-ethylcarbamoyl)-2-methyl-propylcarbamoyl]-ethyl}-phenyl)-difluoro-methyl]-phosphonic acid] | 0.45 ± 0.04 µM |  |  |
